Test results: patent US20240197666A1, “DITERPENOID COMPOUNDS THAT ACT ON PROTEIN KINASE C (PKC)” (K-Gen Therapeutics, Inc., priority 2021, published 2024)
Where two headings read alike, the source gives them in different places.

Key:
[1] = tested on: NFκB-driven transcription in HeLa-NFκB luciferase reporter cell line; assay: NFκB luciferase reporter assay; conditions: Homo sapiens, HeLa, 16 h, read-out: NFκB-luc HeLa cells EC50 (μM)
[2] = tested on: Mino (Lymphoma); assay: Proliferation of Mino; assay type: cell-based; conditions: for IC50: Homo sapiens, MINO, read-out: IC50 Mino (Lymphoma)
Outline: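 Cells seeded per line (KP-4 800-1000, Panc2.13 3000, Namalwa and Mino 5000-10000 cells/well), 24 h at 37° C, then 96 h with 3-fold serial dilutions of compound, final DMSO ≤0.25%. CellTiter Glo luminescence read; % inhibition vs DMSO-only max, IC50 fitted. Potency also normalized as ratio to comparator K101 across batches.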

[3] = tested on: PANC1 cells; assay: Sphere formation assay; assay type: cell-based; conditions: Homo sapiens, PANC-1, read-out: concentration exhibiting at least 50% inhibition on the sphere forming efficiency
Protocol: A group of diterpenoid compounds of the present disclosure were tested to assess their effects on blocking formation of spheres from cancer cell lines such as PANC1, a K-Ras mutant pancreatic cell line. Briefly, PANC1 cells were harvested, re-suspended as single cell suspensions, counted and seeded into Ultra Low Attachment Culture 96-well plate (Corning, Cat #3474) at 100 cells/well in 100 μl of complete media (with 10% FBS) containing 2% Matrigel (Corning, Cat #354234) and DMSO or compounds. Six replicates per condition were seeded. The seeded cells were placed in the 37° C. tissue culture incubator. 10 μl of low serum containing media (with 0.1% FBS) was added to each well every week. Spheres formed after 3-4 weeks were counted. Sphere forming efficiency was expressed as percentage of # of spheres/ # of cells seeded.

[4] = tested on: Namalwa (Lymphoma); assay: Proliferation of Namalwa; assay type: cell-based; conditions: for IC50: read-out: IC50 Namalwa (Lymphoma)
Outline: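 Luminescent ATP read-out (CellTiter Glo) after 96 h compound exposure gave % inhibition relative to DMSO-treated cells, from which IC50 was fitted. Seeding densities were line-specific, from 800 to 10000 cells/well. Potency across batches was normalised to reference compound K101.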

[5] = tested on: Panc2.13 (Pancreatic); assay: Proliferation of Panc2.13; assay type: cell-based
Protocol: (§1) The diterpenoid compounds were tested in A549, a non-small cell lung cancer cell line harboring a K-Ras activating mutation. Briefly, A549 cells at a density of 1,000 cells/well were seeded in 96-well plates and incubated at 37° C. for 24 hours. A series of different concentrations of compound stocks (500×) were prepared by 3-fold serial dilution in DMSO. These compounds were further diluted in culture media and then added to cells so that the final DMSO concentration was not exceeding 0.25%. After 96 hours of incubation, 50 μL of CellTiter Glo reagent (Promega) was added to each well and luminescence was measured after 10 minutes using EnVision (PerkinElmer). Luminescence from cells treated with DMSO alone was set as Max and % of inhibition was calculated as follows: Inhibition %=(Max-Sample value)/Max×100. Data was analyzed using XL-fit software (ID Business Solutions Ltd.) and IC50, relative IC50, and % of top inhibition was calculated. Some of the compounds in this disclosure were very potent in blocking proliferation of A549 lung cancer cells at low nM range. In addition, potency of inhibiting A549 proliferation correlated well with its binding affinity to PKCs for this series of compounds. In other words, higher affinity binders had stronger inhibitory effects on A549 proliferation. This further support the notion that activation, rather than inhibition, of certain PKC isoforms is required to block proliferation of cancer cells, some of which may harbor K-Ras mutations. This is in sharp contrast to previous literature and common belief that inhibition of PKC is necessary to block cancer cell growth (Kang, 2014, New Journal of Science, 2014:1-36). Data presented here is in agreement with recent findings that many loss-of-function but not gain-of-function mutations of PKC isoforms have been identified in many human cancers (Antal et al., 2015, Cell, 160:489-502).
(§2) The compounds in this disclosure were tested for their potency in blocking proliferation of a few other cancer cells lines, including K-Ras mutant pancreatic cell lines Panc2.13 and KP-4, leukemia cell line HL-60, and lymphoma cell lines Namalwa and Mino. Similar procedures as in Example 67 were followed. Initial cell numbers seeded in 96-well plates were different for different cell lines: 3000 cells/well for Panc2.13; 800-1000 cells/well for KP-4; 5000 cells/well for HL-60; 5000-10000 cells/well for Namalwa and Mino. A ratio of (IC50 of K101)/(IC50 of compound) (data in parenthesis in Table 5) was used to normalize the compound potency from different assay batches to a common comparator K101.

[6] = tested on: A549 cell line; assay: Proliferation of A549 (CellTiter Glo); assay type: cell-based; conditions: Homo sapiens, read-out: IC50 μM (A549 Cell Line)
Outline: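 A549 cells (K-Ras-mutant NSCLC) were seeded at 1,000 cells/well, allowed 24 h to settle, then exposed for 96 h to 3-fold serially diluted compound (final DMSO ≤0.25%). CellTiter Glo luminescence was read, and inhibition was calculated relative to DMSO-only wells. IC50, relative IC50 and % top inhibition came from curve fitting.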

[7] = tested on: KP-4 (Pancreatic); assay: Proliferation of KP-4; assay type: cell-based; conditions: read-out: IC50 KP-4 (Pancreatic)
Protocol: as §1, §2

[8] = tested on: HL-60 (Leukemia); assay: Proliferation of HL-60; assay type: cell-based
[9] = target: T1, C1b domain of human PKCε (Homo sapiens, UniProt Q02156); assay: biochemical; assay type: binding; conditions: 3H-PDBu competition
T1 construct: Genes encoding C1b domains of human PKCα, δ, ε, θ, and PKD1 (PKCμ) were synthesized; made in house; host or cells: E. coli BL21(DE3)
T1 sequence (Q02156 242-292 limits assumed): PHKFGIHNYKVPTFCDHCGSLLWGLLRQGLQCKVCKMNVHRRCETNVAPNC
Outline: (§3)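 Recombinant GST-C1b domains (E. coli-expressed) or full-length human PKC competed against tracer ^3H-PDBu; incubation 10 min at 37°C then 20 min on ice, bound radioligand filter-trapped and scintillation-counted. IC50 fitted and converted to Ki via Cheng-Prusoff using experimentally determined Kd per protein preparation.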

[10] = target: T2, C1b domain of human PKCθ (Homo sapiens, UniProt Q04759); assay: biochemical; assay type: binding; conditions: 3H-PDBu competition
T2 construct: Genes encoding C1b domains of human PKCα, δ, ε, θ, and PKD1 (PKCμ) were synthesized; made in house; host or cells: E. coli BL21(DE3)
T2 sequence (Q04759 231-281 limits assumed): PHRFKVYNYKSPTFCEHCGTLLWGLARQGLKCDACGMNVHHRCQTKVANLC
Outline: as §3

[11] = tested on: phosphorylation of PKCμ, PKCδ and Erk1/2 in A549 lung cancer cells; assay: Western blot of activation of PKC and downstream target protein in A549 cells; assay type: cell-based; conditions: 30 minutes
Protocol: According to the methods described in patent (WO/2017/083783) A549 lung cancer cells (˜3 million cells) were seeded in 10 cm tissue culture dishes (or ˜1 million cells in 6 cm dish) and grown overnight. Cells were then treated with different drugs at indicated concentrations for 30 minutes. Cell lysate preparation, protein quantitation, SDS-PAGE, and Western blotting procedures are described (WO/2017/083783). β-actin or Vinculin was used as loading controls. Imagequant LAS4000 (GE) was used to scan membranes if secondary antibodies anti-mouse IgG HRP conjugate or anti-rabbit IgG HRP conjugate (dilutions from 1:2000-1:10000) were used. For ProteinSimple Wes system, manufacture's procedure was followed (ProteinSimple 12-230 kDa Wes Separation Module) for sample preparation, loading, running, and data analysis.
Phosphorylation of these sites has been linked to acute activation or catalytic activity of the PKC isoforms and Erk1/2. High level of phosphorylation indicates strong activation.
A subset of the diterpenoid compounds with good binding affinity to novel PKC isoforms and PKCμ was tested at two different concentrations in A549 cells to assess activation of PKCμ, PKCδ, and Erk1/2 by Western blot analysis. In addition to the phospho-specific antibodies described above, an additional phospho-specific antibody P-PKCδ (S299) (Abcam cat #133456) was also used. This antibody has been shown in the literature (Durgan et al., FEBS Lett. 2007, 581(18):3377-81, Novel phosphorylation site markers of protein kinase C delta activation) to be able to detect activation of PKCδ. K-101 (prostratin, 1 μM) was included as reference compounds.

[12] = target: T3, C1b domain of human PKCα (Homo sapiens, UniProt P17252); assay: biochemical; assay type: binding; conditions: 3H-PDBu competition
T3 construct: Genes encoding C1b domains of human PKCα, δ, ε, θ, and PKD1 (PKCμ) were synthesized; made in house; host or cells: E. coli BL21(DE3)

[13] = target: T4, C1b domain of human PKD1 (PKCμ) (Homo sapiens, UniProt Q15139); assay: Competitive 3H-PDBu binding assay, C1b domain of PKD1 (PKCμ); conditions: 3H-PDBu competition
T4 construct: Genes encoding C1b domains of human PKCα, δ, ε, θ, and PKD1 (PKCμ) were synthesized; made in house; host or cells: E. coli BL21(DE3)
T4 sequence (Q15139 270-320 limits assumed): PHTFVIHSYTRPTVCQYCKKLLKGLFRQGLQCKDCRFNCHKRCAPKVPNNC
Protocol: Compounds described in this disclosure were tested for binding affinity to C1b domain of PKC isoforms. Compound binding affinity to C1b domain of PKC isoforms was derived from competitive binding assay using radioactive tracer ^3H-PDBu and recombinant GST-C1b or full-length of human PKC proteins based on modified procedures from Methods in Molecular Biology, vol.
Genes encoding C1b domains of human PKCα, δ, ε, θ, and PKD1 (PKCμ) were synthesized and inserted into pGEX-2TK or pGEX-4T1 vectors for expression and production of GST-C1b proteins in E. coli BL21(DE3) via IPTG induction. The target proteins were purified by glutathione sepharose 4B and followed by ion exchange chromatography if needed to achieve purity >70%. Aliquots of the purified proteins were stored at −80 degree for binding assay (storage buffer: 20 mM Tris pH 8.0, 200 mM NaCl, 10% glycerol, 1 mM DTT).
The plate was incubated at 37° C. on a shaker at 300 rpm for 10 minutes and then put on ice for 20 minutes. […] The bottom of the filter plate was sealed and 50 μL of MicroScint-20 (PerkinElmer) cocktail was added to each well. ^3H-PDBu trapped in each well was counted using PerkinElmer MicroBeta2 Reader. Data were analyzed using GraphPad Prism5 with the model “log(inhibitor) vs. response-variable slope” to fit the IC50, and then IC50 was transformed to Ki using Cheng-Prusoff equation: Ki=IC50/(1+added radio ligand/Kd). Kd is the binding affinity of each protein preparation to ^3H-PDBu, determined experimentally.

[14] = target: T5, C1b domain of human PKCδ (Homo sapiens, UniProt Q05655); assay: biochemical; assay type: binding; conditions: 3H-PDBu competition
T5 construct: Genes encoding C1b domains of human PKCα, δ, ε, θ, and PKD1 (PKCμ) were synthesized; made in house; host or cells: E. coli BL21(DE3)
T5 sequence (Q05655 230-280 limits assumed): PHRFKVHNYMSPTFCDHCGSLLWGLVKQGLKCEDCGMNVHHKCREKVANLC
Outline: as §3

## CC1=C[C@H]2[C@@]3(O)[C@H](C)C[C@]4(OC(=O)[C@@H](N)CCC5CCCCC5)[C@H]([C@@H]3C=C(CO)C[C@]2(O)C1=O)C4(C)C
[1]
  EC50: 0.01 to 0.03 µM
[2]
  ratio (IC50 of K101)/(IC50 of compound) Mino: 33
  IC50: 0.001 to 0.01 µM
[3]
  IC50: ≤ 0.15 µM
[4]
  ratio (IC50 of K101)/(IC50 of compound) Namalwa: 7.42
  IC50: 0.001 to 0.01 µM
[5]
  ratio (IC50 of K101)/(IC50 of compound) Panc2.13: 20.5
[5]; read-out: IC50 Panc2.13 (Pancreatic)
  IC50: 0.03 to 0.06 µM
[6]; A549, 96 h
  IC50: 0.01 to 0.03 µM
[7]
  IC50: 0.01 to 0.03 µM
[8]
  ratio (IC50 of K101)/(IC50 of compound) HL-60: 27.7
[8]; Homo sapiens, HL-60, read-out: IC50 HL-60 (Leukemia)
  IC50: 0.01 to 0.03 µM
[9]
  Ki: 0.01 to 0.03 µM
[10]
  Ki: 0.01 to 0.03 µM

## CC1=C[C@H]2[C@@]3(O)[C@H](C)C[C@]4(OC(=O)[C@H](N)Cc5ccccc5)[C@H]([C@@H]3C=C(CO)C[C@]2(O)C1=O)C4(C)C
[11]; 3 μM
  phosphorylation of PKCμ, PKCδ and Erk1/2: induced phosphorylation
[6]; A549, 96 h
  IC50: 1 to 2 µM

## CC(=O)O[C@@]12C[C@@H](C)[C@@]3(O)[C@@H](C=C(CO)C[C@]4(O)C(=O)C(C)=C[C@@H]34)[C@@H]1C2(C)C [Compound K101, prostratin, reference compound]
[1]
  EC50: 0.2 to 0.6 µM
[2]; 96 h
  IC50: 0.1 to 0.6 µM
[3]; PANC1, spheres counted after 3-4 weeks
  IC50: 5.5 µM
[4]; 96 h
  IC50: 0.1 to 0.6 µM
[11]; 1 μM
  phosphorylation of PKCμ, PKCδ and Erk1/2: induced high levels of phosphorylation
[7]
  IC50: 0.2 to 0.6 µM

## CC1=C[C@H]2[C@@]3(O)[C@H](C)C[C@]4(OC(=O)[C@@H](N)CCc5ccc(C(F)(F)F)cc5)[C@H]([C@@H]3C=C(CO)C[C@]2(O)C1=O)C4(C)C
[12]
  Ki: 0.2 to 0.4 µM
[6]; A549, 96 hours, CellTiter Glo
  IC50: 0.1 to 0.2 µM
[13]
  Ki: < 0.005 µM
[14]
  Ki: 0.01 to 0.03 µM
